Laboratory results from US20260335300A1, “Synthetic Nicotine Analogue Formulation For Nicotine Replacement and Amplication” (priority 2023, published 2026).

What was measured:
[1] = background statement, cited from earlier work; for satisfaction and 'throat-hit' sensation: novel tobacco products; for satisfaction in oral and nasal products: novel oral and nasal nicotine products
in vivo = conditions: rat, po
rats [2] = conditions: acute oral
mice [3] = conditions: mouse, in vivo
[4] = Chemical stability in air / exposure to atmosphere for 24 hours, discoloration, blending; type: physicochemical
[5] = Solubility in appropriate solvents; type: physicochemical; conditions: in the appropriate solvents
rats [6] = conditions: comparison value; cited from earlier work
mice [7] = conditions: comparison value; cited from earlier work

CN1CCCC1c1cccnc1 (racemic) [racemic nicotine]
satisfaction and 'throat-hit' sensation [1]: does not induce the distinctive satisfaction and ‘throat-hit’ sensation

Cc1ccc([C@H]2CCCN2C)cn1 [(R)-6-Methylnicotine, reference compound]
efficacy as nicotine analogue and flavor (enantiomer, no test described): not effective as a nicotine analogue, and contributes to unpleasant flavors

Cc1ccc([C@@H]2CCCN2C)cn1.O=C(O)c1ccccc1 [(S)-6-Methylnicotine benzoate]
LD50 (in vivo): 120 to 215 mg/kg | reduction in toxicity versus nicotine on an equivalent effective use basis (rats [2]; equivalent effective use basis): 2 order of magnitude | toxicity relative to nicotine (rats [2]; versus nicotine): half to one quarter as toxic

Cc1ccc([C@@H]2CCCN2C)cn1 [(S)-6-Methylnicotine, (S)-2-methyl-5-(1-methylpyrrolidin-2-yl)pyridine]
reduction of oral toxicity versus nicotine (mice [3]): ~3 order of magnitude | toxicity compared to nicotine, in words (mice [3]; po): both less toxic, and can be used in lower amounts than nicotine | chemical stability compared to nicotine ([4]; degradation and discoloration): more chemically stable than nicotine, and resists degradation and discoloration | lifetime in the air relative to nicotine ([4]; in the air, versus nicotine, may potentially): ≤ 5 times | stability when blended with other compounds ([4]; versus nicotine, blended with other compounds): more stable than nicotine when blended with other compounds | resistance to higher temperatures ([4]; versus nicotine, may): may be able to resist higher temperatures | solubility [5]: acceptable for all of the aforementioned applications | relief from cravings / subjective hit sensation (in words): induces a subjective “hit” sensation which satisfies cravings | onset of action compared to nicotine (preliminary, versus nicotine): may be faster acting

COC(=O)C1=CCCN(C)C1 [arecoline]
satisfaction in oral and nasal products [1]: limited satisfaction due to a lack of satisfactory sensations | satisfaction and 'throat-hit' sensation [1]: lack of satisfaction and ‘throat-hit’ sensation

O=c1cccc2n1C[C@@H]1CNC[C@H]2C1 [cytisine]
satisfaction in oral and nasal products [1]: limited satisfaction due to a lack of satisfactory sensations | satisfaction and 'throat-hit' sensation [1]: lack of satisfaction and ‘throat-hit’ sensation

CN1CCCC1c1cccnc1 (stereo not drawn) [nicotine]
acute oral LD50 of nicotine (rats [6]): 50 mg/kg | yellowing on exposure to atmosphere ([4]; exposed to atmosphere for 24 hours): yellowing was observed sooner than (S)-6-Methylnicotine | acute oral LD50 of nicotine (mice [7]): about 3.3 mg/kg BW
